Experimental data taken from patent EP0013144A1, “Substituted diphenylamine derivatives, compositions and herbicidal uses thereof, and processes for their preparation” (ICI AUSTRALIA LIMITED, priority 1978, dated 1980).

Tests used:
Type in all cases: in vivo
Rice [1] = assay: Pre-emergence herbicidal test, fibre trays (Example 33); details: 2.0 kg/ha, after 21 days
Procedure: (§1) The compounds were formulated for test by mixing an appropriate amount with 5 ml of an emulsion prepared by diluting 160 ml of a solution containing 21.S g per litre of "Span" 80 and 78.2 g per litre of "Tween" 20 in methylcyclohexanone to 500 ml with water. "Span" 80 is a Trade Mark for a surface-active agent comprising sorbitan monolaurate. "Tween" 20 is a Trade Mark for a surface-active agent comprising a condensate of sorbitan monolaurate with 20 molar proportions of ethylene oxide. Each 5 ml emulsion containing a test compound was'then diluted to 40 ml with water and sprayed on to young pot plants (post-emergence test) of the species named in Table 5 below. Damage to test plants was assessed after 14 days on a scale of 0 to 5 where 0 is 0 to 20% damage and 5 is complete kill. In a test for pre-emergence herbicidal activity, seeds of the test plants were sown in a shallow slit formed in the surface of soil in fibre trays. The surface was then levelled and sprayed, and fresh soil then spread thinly over the sprayed surface. Assessment of herbicidal damage was carried out after 21 days using the same scale of 0 to 5 as the post-emergence test. In both cases the degree of herbicidal damage was assessed by comparison with untreated control plants. A dash (-) means that no experiment was carried out.

Maize [2] = assay: Post-emergence herbicidal test, young pot plants (Example 33); details: 2.0 kg/ha, after 14 days
Procedure: as §1

Rice [3] = assay: as above; details: 2.0 kg/ha, after 14 days
Procedure: as §1

Sunflower [4] = assay: Post-emergence herbicidal activity (Example 32); details: 3 weeks after spraying
How it was run: (§2)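 Glasshouse-grown seedlings reaching roughly 10–12.5 cm height were sprayed with water-diluted formulations, either toluene-based emulsifiable concentrates or ball-milled suspensions. After a further 3 weeks, injury was scored by eye against untreated plants: 0 = 0–25% damage, 3 = 75–99% kill, 3+ = complete kill.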

Japanese millet [5] = assay: Post-emergence herbicidal activity (Example 32); details: 3 weeks after spraying
How it was run: as §2

Ryegrass [6] = assay: Post-emergence herbicidal activity (Example 32); details: 3 weeks after spraying
How it was run: as §2

Mustard [7] = assay: Post-emergence herbicidal activity (Example 32); details: 3 weeks after spraying
How it was run: as §2

Wild Oats [8] = assay: Post-emergence herbicidal activity (Example 32); details: 3 weeks after spraying
How it was run: as §2

Ryegrass [9] = assay: Pre-emergence herbicidal activity (Example 31); design: key: 0-3 scale: 0 = 0-25% damage, 3 = 75-99% kill, 3+ = 100% kill; details: 10 kg/ha, after three weeks
How it was run: (§3)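 Seeded soil boxes (seeds at 2 cm) were sprayed with water-diluted emulsifiable concentrates or milled suspensions, then held under glass. Three weeks later, visual scoring: 0 = 0–25% damage, 3 = 75–99% kill, 3+ = complete kill; unsprayed duplicate boxes as reference.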

Wheat [10] = assay: Pre-emergence herbicidal activity (Example 31); design: key: 0-3 scale: 0 = 0-25% damage, 3 = 75-99% kill, 3+ = 100% kill; details: 10 kg/ha, after three weeks
How it was run: as §3

Maize [11] = assay: Pre-emergence herbicidal test, fibre trays (Example 33); design: key: 0 = 0-20% damage, 5 = complete kill, vs untreated control; details: 2.0 kg/ha, after 21 days
Procedure: as §1

Senecio vulgaris [12] = assay: as above; details: 2.0 kg/ha, after 21 days
Procedure: as §1

Sugar beet [13] = assay: as above; details: 2.0 kg/ha, after 21 days
Procedure: as §1

Soy bean [14] = assay: as above; details: 2.0 kg/ha, after 21 days
Procedure: as §1

Rape [15] = assay: as above; details: 2.0 kg/ha, after 21 days
Procedure: as §1

Winter wheat [16] = assay: as above; details: 2.0 kg/ha, after 21 days
Procedure: as §1

Cotton [17] = assay: as above; details: 2.0 kg/ha, after 21 days
Procedure: as §1

Ipomea purpurea [18] = assay: as above; details: 2.0 kg/ha, after 21 days
Procedure: as §1

Wheat [19] = assay: Post-emergence herbicidal activity (Example 32); design: key: 0-3 scale: 0 = 0-25% damage, 3 = 75-99% kill, 3+ = 100% kill; details: 3 weeks after spraying
How it was run: as §2

Winter wheat [20] = assay: Post-emergence herbicidal test, young pot plants (Example 33); design: key: 0 = 0-20% damage, 5 = complete kill, vs untreated control; details: 2.0 kg/ha, after 14 days
Procedure: as §1

Sunflower [21] = assay: Pre-emergence herbicidal activity (Example 31); details: 10 kg/ha, after three weeks
How it was run: as §3

Japanese millet [22] = assay: Pre-emergence herbicidal activity (Example 31); details: 10 kg/ha, after three weeks
How it was run: as §3

Ipomea [23] = assay: Pre-emergence herbicidal activity (Example 31); details: 10 kg/ha, after three weeks
How it was run: as §3

Mustard [24] = assay: Pre-emergence herbicidal activity (Example 31); details: 10 kg/ha, after three weeks
How it was run: as §3

Wild Oats [25] = assay: Pre-emergence herbicidal activity (Example 31); details: 10 kg/ha, after three weeks
How it was run: as §3

Polygonum aviculare [26] = assay: Post-emergence herbicidal test, young pot plants (Example 33); details: 2.0 kg/ha, after 14 days
Procedure: as §1

Senecio vulgaris [27] = assay: as above; details: 2.0 kg/ha, after 14 days
Procedure: as §1

Sugar beet [28] = assay: as above; details: 2.0 kg/ha, after 14 days
Procedure: as §1

Amaranthus retroflexus [29] = assay: as above; details: 2.0 kg/ha, after 14 days
Procedure: as §1

Soy bean [30] = assay: as above; details: 2.0 kg/ha, after 14 days
Procedure: as §1

Chenopodium album [31] = assay: as above; details: 2.0 kg/ha, after 14 days
Procedure: as §1

Rape [32] = assay: as above; details: 2.0 kg/ha, after 14 days
Procedure: as §1

Cotton [33] = assay: as above; details: 2.0 kg/ha, after 14 days
Procedure: as §1

Ipomea purpurea [34] = assay: as above; details: 2.0 kg/ha, after 14 days
Procedure: as §1

Ipomea [35] = assay: Post-emergence herbicidal activity (Example 32); details: 5 kg/ha, 3 weeks after spraying
How it was run: as §2

Amaranthus retroflexus [36] = assay: Pre-emergence herbicidal test, fibre trays (Example 33); details: 2.0 kg/ha, after 21 days
Procedure: as §1

Polygonum aviculare [37] = assay: as above; details: 2.0 kg/ha, after 21 days
Procedure: as §1

Chenopodium album [38] = assay: as above; details: 2.0 kg/ha, after 21 days
Procedure: as §1

Structure (SMILES): COC(=O)C(C)Oc1ccc(Nc2ccc([N+](=O)[O-])cc2[N+](=O)[O-])cc1 (stereo not shown) [Compound 15]
- herbicidal damage, Rc (Rice [1]): 0 (0 is 0 to 20% damage)
- damage to test plants, Mz (Maize [2]): 4
- damage to test plants, Rc (Rice [3]): 2
- damage to plants, Sf (Sunflower [4]; 1 kg/ha): 0 (0 represents 0 to 25% damage)
- damage to plants, Sf (Sunflower [4]; 5 kg/ha): 0 (0 represents 0 to 25% damage)
- damage to plants, Sf (Sunflower [4]; 10 kg/ha): 0 (0 represents 0 to 25% damage)
- damage to plants, Jm (Japanese millet [5]; 1 kg/ha): 3 (3 represents 75 to 99% kill)
- damage to plants, Jm (Japanese millet [5]; 5 kg/ha): 3+ (3+ represents 100% kill)
- damage to plants, Jm (Japanese millet [5]; 10 kg/ha): 3+ (3+ represents 100% kill)
- damage to plants, Rg (Ryegrass [6]; 1 kg/ha): 1
- damage to plants, Rg (Ryegrass [6]; 5 kg/ha): 3+ (3+ represents 100% kill)
- damage to plants, Rg (Ryegrass [6]; 10 kg/ha): 3+ (3+ represents 100% kill)
- damage to plants, Ms (Mustard [7]; 1 kg/ha): 1
- damage to plants, Ot (Wild Oats [8]; 10 kg/ha): 2
- damage to plants, Rg (Ryegrass [9]): 3 (3 represents 75 to 99% kill)
- damage to plants, Wh (Wheat [10]): 0 (0 represents from 0 to 25% damage)
- herbicidal damage, Mz (Maize [11]): 2
- herbicidal damage, Sn (Senecio vulgaris [12]): 0 (0 is 0 to 20% damage)
- herbicidal damage, Sb (Sugar beet [13]): 0 (0 is 0 to 20% damage)
- herbicidal damage, Sy (Soy bean [14]): 1
- herbicidal damage, Rp (Rape [15]): 0 (0 is 0 to 20% damage)
- herbicidal damage, Ww (Winter wheat [16]): 0 (0 is 0 to 20% damage)
- herbicidal damage, Ct (Cotton [17]): 0 (0 is 0 to 20% damage)
- herbicidal damage, Ip (Ipomea purpurea [18]): 0 (0 is 0 to 20% damage)
- damage to plants, Wh (Wheat [19]; 1 kg/ha): 0 (0 represents 0 to 25% damage)
- damage to plants, Wh (Wheat [19]; 5 kg/ha): 2
- damage to plants, Wh (Wheat [19]; 10 kg/ha): 2
- damage to test plants, Ww (Winter wheat [20]): 2
- damage to plants, Sf (Sunflower [21]): 0 (0 represents from 0 to 25% damage)
- damage to plants, Jm (Japanese millet [22]): 3 (3 represents 75 to 99% kill)
- damage to plants, Ip (Ipomea [23]): 0 (0 represents from 0 to 25% damage)
- damage to plants, Ms (Mustard [24]): 0 (0 represents from 0 to 25% damage)
- damage to plants, Ot (Wild Oats [25]): 1
- damage to test plants, Pi (Polygonum aviculare [26]): 0 (0 is 0 to 20% damage)
- damage to test plants, Sn (Senecio vulgaris [27]): 0 (0 is 0 to 20% damage)
- damage to test plants, Sb (Sugar beet [28]): 0 (0 is 0 to 20% damage)
- damage to test plants, Am (Amaranthus retroflexus [29]): 2
- damage to test plants, Sy (Soy bean [30]): 2
- damage to test plants, Ca (Chenopodium album [31]): 1
- damage to test plants, Rp (Rape [32]): 2
- damage to test plants, Ct (Cotton [33]): 2
- damage to test plants, Ip (Ipomea purpurea [34]): 0 (0 is 0 to 20% damage)

Structure (SMILES): COC(=O)C(C)Oc1ccc(N(C)c2ccc([N+](=O)[O-])cc2[N+](=O)[O-])cc1 (stereo not shown) [Compound 18]
- herbicidal damage, Rc (Rice [1]): 1
- damage to test plants, Mz (Maize [2]): 2
- damage to test plants, Rc (Rice [3]): 0 (0 is 0 to 20% damage)
- damage to plants, Sf (Sunflower [4]; 5 kg/ha): 0 (0 represents 0 to 25% damage)
- damage to plants, Jm (Japanese millet [5]; 5 kg/ha): 3+ (3+ represents 100% kill)
- damage to plants, Rg (Ryegrass [6]; 5 kg/ha): 3+ (3+ represents 100% kill)
- damage to plants, Ip (Ipomea [35]): 0 (0 represents 0 to 25% damage)
- damage to plants, Ms (Mustard [7]; 5 kg/ha): 0 (0 represents 0 to 25% damage)
- damage to plants, Ot (Wild Oats [8]; 5 kg/ha): 3 (3 represents 75 to 99% kill)
- herbicidal damage, Mz (Maize [11]): 1
- herbicidal damage, Sn (Senecio vulgaris [12]): 0 (0 is 0 to 20% damage)
- herbicidal damage, Sb (Sugar beet [13]): 0 (0 is 0 to 20% damage)
- herbicidal damage, Am (Amaranthus retroflexus [36]): 0 (0 is 0 to 20% damage)
- herbicidal damage, Sy (Soy bean [14]): 0 (0 is 0 to 20% damage)
- herbicidal damage, Rp (Rape [15]): 1
- herbicidal damage, Ww (Winter wheat [16]): 0 (0 is 0 to 20% damage)
- herbicidal damage, Ct (Cotton [17]): 0 (0 is 0 to 20% damage)
- herbicidal damage, Ip (Ipomea purpurea [18]): 0 (0 is 0 to 20% damage)
- damage to plants, Wh (Wheat [19]; 5 kg/ha): 2
- damage to test plants, Ww (Winter wheat [20]): 0 (0 is 0 to 20% damage)
- damage to test plants, Sn (Senecio vulgaris [27]): 0 (0 is 0 to 20% damage)
- damage to test plants, Sb (Sugar beet [28]): 1
- damage to test plants, Sy (Soy bean [30]): 0 (0 is 0 to 20% damage)
- damage to test plants, Rp (Rape [32]): 0 (0 is 0 to 20% damage)
- damage to test plants, Ct (Cotton [33]): 0 (0 is 0 to 20% damage)
- damage to test plants, Ip (Ipomea purpurea [34]): 0 (0 is 0 to 20% damage)

Structure (SMILES): COC(=O)C(C)Oc1ccc(Nc2ccc(C(F)(F)F)cc2[N+](=O)[O-])cc1Cl (stereo not shown) [Compound 116]
- herbicidal damage, Rc (Rice [1]): 4
- damage to test plants, Mz (Maize [2]): 4
- damage to test plants, Rc (Rice [3]): 4
- herbicidal damage, Mz (Maize [11]): 3
- herbicidal damage, Pi (Polygonum aviculare [37]): 0 (0 is 0 to 20% damage)
- herbicidal damage, Sn (Senecio vulgaris [12]): 0 (0 is 0 to 20% damage)
- herbicidal damage, Sb (Sugar beet [13]): 0 (0 is 0 to 20% damage)
- herbicidal damage, Am (Amaranthus retroflexus [36]): 0 (0 is 0 to 20% damage)
- herbicidal damage, Sy (Soy bean [14]): 0 (0 is 0 to 20% damage)
- herbicidal damage, Ca (Chenopodium album [38]): 0 (0 is 0 to 20% damage)
- herbicidal damage, Rp (Rape [15]): 0 (0 is 0 to 20% damage)
- herbicidal damage, Ww (Winter wheat [16]): 4
- herbicidal damage, Ct (Cotton [17]): 0 (0 is 0 to 20% damage)
- herbicidal damage, Ip (Ipomea purpurea [18]): 0 (0 is 0 to 20% damage)
- damage to test plants, Ww (Winter wheat [20]): 4
- damage to test plants, Pi (Polygonum aviculare [26]): 0 (0 is 0 to 20% damage)
- damage to test plants, Sb (Sugar beet [28]): 3
- damage to test plants, Am (Amaranthus retroflexus [29]): 0 (0 is 0 to 20% damage)
- damage to test plants, Sy (Soy bean [30]): 0 (0 is 0 to 20% damage)
- damage to test plants, Ca (Chenopodium album [31]): 0 (0 is 0 to 20% damage)
- damage to test plants, Rp (Rape [32]): 0 (0 is 0 to 20% damage)
- damage to test plants, Ct (Cotton [33]): 0 (0 is 0 to 20% damage)
- damage to test plants, Ip (Ipomea purpurea [34]): 0 (0 is 0 to 20% damage)
